In publication PMC10891602, “Improvement of Carotenoids’ Production by Increasing the Activity of Beta-Carotene Ketolase with Different Strategies” (Microorganisms, 2024):

How the values were obtained:
[1] = target: T1, CzW1 (Chromochloris zofingiensis, UniProt Q5U931); experiment: HPLC of echinenone and canthaxanthin formed by crude extract; assay type: biochemical; conditions: Fe2+, 2-oxoglutarate, ascorbate, NADPH, ATP; pH 8.0; 30 °C; 3 h
T1 construct: gene bkt/crto
T1 sequence (Q5U931 1-312): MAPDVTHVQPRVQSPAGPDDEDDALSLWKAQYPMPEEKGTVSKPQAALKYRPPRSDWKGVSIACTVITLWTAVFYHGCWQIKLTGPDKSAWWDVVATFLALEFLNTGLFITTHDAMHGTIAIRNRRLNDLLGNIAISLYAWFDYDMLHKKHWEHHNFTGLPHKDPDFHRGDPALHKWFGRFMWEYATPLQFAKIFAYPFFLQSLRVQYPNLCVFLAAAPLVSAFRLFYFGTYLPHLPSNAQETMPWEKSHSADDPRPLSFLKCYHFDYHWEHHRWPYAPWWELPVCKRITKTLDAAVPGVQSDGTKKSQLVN

[2] = target: T2, CrtWBsp (Brevundimonas sp. NBRC 101024, UniProt Q4W8B8); experiment: as above; assay type: biochemical; conditions: Fe2+, 2-oxoglutarate, ascorbate, NADPH, ATP; pH 8.0; 30 °C; 3 h
T2 construct: gene crtW
T2 sequence (Q4W8B8 1-244): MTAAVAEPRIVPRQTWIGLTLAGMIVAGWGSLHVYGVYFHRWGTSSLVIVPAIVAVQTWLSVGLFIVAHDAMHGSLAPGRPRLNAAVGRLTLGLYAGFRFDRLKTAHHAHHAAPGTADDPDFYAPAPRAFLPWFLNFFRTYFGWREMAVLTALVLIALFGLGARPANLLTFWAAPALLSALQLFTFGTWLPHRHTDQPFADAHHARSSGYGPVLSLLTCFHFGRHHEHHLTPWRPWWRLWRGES

SMILES: CC1=C(/C=C/C(C)=C/C=C/C(C)=C/C=C/C=C(C)/C=C/C=C(C)/C=C/C2=C(C)CCCC2(C)C)C(C)(C)CCC1 [β-carotene]
- HPLC of echinenone and canthaxanthin formed by crude extract [1]: canthaxanthin was only detected in enzymatic solution containing protein extracts from E. coli with pCrtWBsp and pCzW1
- HPLC of echinenone and canthaxanthin formed by crude extract [2]: β-carotene ketolase from p30CrtWBsp was more efficient in the production of echinenone and canthaxanthin
